Data reported in article PMC12864978, “Covalent modification of a glutamic acid inspired by HaloTag technology” (Nature Communications, 2026).
Like-named read-outs stand apart in the source and are kept apart here.

Key:
[1] = target: T1, PDEδ in the presence of Arl2•GppNHp (Homo sapiens, UniProt O43924); experiment: Competitive fluorescence polarisation assay in the presence of Arl2•GppNHp; assay type: binding
T1 construct: His tag; made in house; host or cells: Escherichia coli Rosetta (BL21DE3), pET plasmids
Source text: (§1) Data are presented as mean ± s.e.m.

[2] = tested on: mTORC1 substrate S6P in PA-TU-8902 cells; details: 10 µM
PDEδ [3] = target: T2, PDEδ (Homo sapiens, UniProt O43924); experiment: Mass spectrometry analysis of PDEδ adducts after Glu-C digestion; assay type: binding; design: His tag; made in house; host or cells: Escherichia coli Rosetta (BL21DE3), pET plasmids; details: LC-MS/MS, 10:1 compound to protein
Procedure: For each replicate, 1.5 µg covalent adduct of PDEδ sample in PBS buffer was denatured, reduced, alkylated and digested by Glu-C and desalted, together with a negative control of unbound vehicle-treated PDEδ sample prior to mass spectrometry analysis. […] The final mixture containing 6.5 M guanidine hydrochloride was heated at 95 °C for 15 min. Subsequently, after cooling, 0.5 µl of a 50 mM dithiothreitol (DTT, cas 3483-12-3, Gerbu Biotechnik, #1008-100 g) solution was added. […] . Samples were incubated at 37 °C overnight with shaking at 400 rpm, protected from light. […] Desalting was carried out with stage tips with C18 extraction discs (Empore^TM high performance extraction discs, 47 mm, 3 M Bioanalytical Technologies #2215). Each stage tip, which consists of two stacked layers of C18 discs, was activated with methanol (100 µl), washed once with buffer B (100 µl, 0.1% formic acid, 80% acetonitrile), and twice with buffer A (100 µl/time, 0.1% formic acid). After sample loading and washing with buffer A once, the desalted sample was eluted with buffer B (20 µl/sample) and centrifuged at 500×g at room temperature for 5 min. Eluted samples were then dried in a SpeedVac at 30 °C.
Data evaluation was performed using MaxQuant software (v.2.2.0.0)[52]. […] Cleavages by Glu-C were analysed based on the enzyme that was used for digestion. […]

[4] = Compound stability in aqueous buffers; assay type: physicochemical
Procedure: Compound (1 mM) was incubated with the respective buffers (HEPES 20 mM, 150 mM NaCl, pH = 7.5; 0.2 M sodium acetate buffer, pH = 5.6; 0.2 M sodium citrate buffer, pH = 6.2; 0.2 M potassium phosphate buffer, pH = 7.4, 1 mM EDTA, with or without 10 mM GSH), with 1% DMSO adjusted for all conditions. […] Per cent (%) compound remaining in the solution was estimated by the ratio of areas under the curve, and data plotted were fitted to pseudo-1st kinetics in the calculation of rate constants (k) and half-lives (t1/2), where k is the negative slope of a linear regression of In (% compound remaining) over time. Half-lives (t1/2) in respective buffers and half-lives for GSH adduct formation (t1/2 GSH) were calculated with the following equations:1 t1/2=In2/k 2 kGSH=ktotalconsumptioninphosphatebufferinpresenceofGSH−k(phosphatebufferinabsenceofGSH) 3 t1/2GSH=In2/k(GSH) […]
a, Percentage (%) of compound remaining was monitored by HPLC-MS and data was fitted to pseudo-first kinetics in calculation of rate constants (k) and half-lives (t1/2) in respective buffers, where k is the negative slope of a linear regression of In (% compound remaining) over time and t 1/2 = In2/k. Initial […]
Initial GSH concentration =

PDEδ [5] = target: T2, PDEδ; experiment: Competitive fluorescence polarisation assay (FA probe displacement); assay type: binding; design: His tag; made in house; host or cells: Escherichia coli Rosetta (BL21DE3), pET plasmids
[6] = target: PDEδ in Jurkat cell lysates (Homo sapiens, UniProt O43924); experiment: In-lysate CETSA (immunoblot readout); assay type: binding; design: host or cells: Jurkat
[7] = target: T1, PDEδ in the presence of Arl2•GppNHp; experiment: Kinetics of covalent modification of PDEδ by MALDI in the presence of Arl2•GppNHp; assay type: binding; details: PDEδ: Arl2•GppNHp = 1:1, 3 eq. of 6a
Source text: as §1
(§2) The solution was briefly centrifuged before a sample was taken at the designated time for analysis by MALDI. […] Mass spectra were obtained over the m/z range 15,000–25,000 using a Bruker UltrafleXtreme XIAL DI-TOF/TOF mass spectrometer. Percentages of covalent adduct formation were estimated by the relative intensity of the respective peaks in MALDI spectra.

PDEδ [8] = target: T2, PDEδ; experiment: Covalent modification of PDEδ by MALDI mass spectrometry; assay type: binding; design: His tag; made in house; host or cells: Escherichia coli Rosetta (BL21DE3), pET plasmids
Procedure: as §2
1. Supplementary Figures and Tables
PDEδ (20 µM) was incubated with compounds (60 µM) in HEPES
Percentages of covalent adduct formation were estimated by the relative intensity of the respective peaks in MALDI spectra. Data are presented as mean ± s.e.m.
Apparent pseudo -first order kobs was estimated by percentages of covalent adduct formation at 2 hours by MALDI. Plot of kobs (h-1) against concentration (µM) was fitted by GraphPad […]
Prism Michaelis-Menten model and separate values for kinact and KI were obtained to calculate apparent […]
PDEδ (20 µM) was incubated with
as §1
HEPES buffer, n = 3 for the rest). One-way ANOVA with matched time-points, with Geisser-

In the case of Cc1ccc(-n2nc3c(=O)n(CCCCS(=O)(=O)N(CCc4cccc(CCBr)c4)CC4CCNCC4)nc(C)c3c2C)cc1 [6a], the IC50 ([1]; 37 °C, PDEδ 40 nM, Arl2•GppNHp 40 nM, FA probe 24 nM) is reported as 10.1 ± 2.6 nM, the IC50 ([1]; pre-incubated with PDEδ at 37 °C overnight before addition of Arl2•GppNHp) is reported as 4.8 ± 1.5 nM and the S6P phosphorylation [2] is reported as “reduced S6P phosphorylation in a time-dependent manner”. For the same molecule, the “site of covalent modification in PDEδ” value (PDEδ [3]) was “either at p.E88 or p.E89”, the half-life at 1 mM ([4]; HEPES buffer, pH 7.5, 37 °C, compound 1 mM, read-out: half-life t1/2 in HEPES buffer (converted)) was 20 days and the half-life at 1 mM ([4]; acetate buffer, pH 5.6, 37 °C, read-out: half-life t1/2 in acetate buffer (converted)) was 6.04 days. It also gave an IC50 (PDEδ [5]; 37 °C overnight) of 6.5 ± 3.5 nM, an IC50 (PDEδ [5]; PDEδ 40 nM, FA probe 24 nM, room temperature overnight) of 15.2 ± 8.6 nM and a ΔTm at 10 µM ([6]; 15 min at 37 °C) of 11.8 ± 0.2 °C. The ΔTm at 10 µM ([6]; 2 h at 37 °C) was 22.1 ± 1 °C, the “rate of covalent PDEδ modification in the presence of Arl2•GppNHp” value [7] was “comparable rate” and the KI (PDEδ [8]; Michaelis-Menten fit of kobs) was 464900 nM. For the same molecule, the “covalent modification of PDEδ in different solvents” value (PDEδ [8]; buffers of various pH, 8 h and 24 h) was “pH-independent” and the “% labelling at 24 h” value (PDEδ [8]; representative MALDI spectrum, Fig. 2c) was 100%.
